Experimental data as given in paper PMC6540285, “Evaluation of Protein Kinase Inhibitors with PLK4 Cross-Over Potential in a Pre-Clinical Model of Cancer” (International Journal of Molecular Sciences, 2019).

What was measured:
KIT D816V = KIT D816V (Homo sapiens, UniProt P10721, D816V); assay: SelectScreen kinase profiling, LanthaScreen binding
SGKL (SGK3) = SGKL (SGK3) (Homo sapiens, UniProt Q96BR1); assay: SelectScreen kinase profiling, ZLYTE; assay type: biochemical
BRSK2 = BRSK2 (Homo sapiens, UniProt Q8IWQ3); assay: SelectScreen kinase profiling, LanthaScreen binding; conditions: BRSK2, 10 µM
RET S891A = RET S891A (Homo sapiens, UniProt P07949, S891A); assay: SelectScreen kinase profiling, ZLYTE; assay type: biochemical
RET S891A, sequence (P07949 29-1114 S891A): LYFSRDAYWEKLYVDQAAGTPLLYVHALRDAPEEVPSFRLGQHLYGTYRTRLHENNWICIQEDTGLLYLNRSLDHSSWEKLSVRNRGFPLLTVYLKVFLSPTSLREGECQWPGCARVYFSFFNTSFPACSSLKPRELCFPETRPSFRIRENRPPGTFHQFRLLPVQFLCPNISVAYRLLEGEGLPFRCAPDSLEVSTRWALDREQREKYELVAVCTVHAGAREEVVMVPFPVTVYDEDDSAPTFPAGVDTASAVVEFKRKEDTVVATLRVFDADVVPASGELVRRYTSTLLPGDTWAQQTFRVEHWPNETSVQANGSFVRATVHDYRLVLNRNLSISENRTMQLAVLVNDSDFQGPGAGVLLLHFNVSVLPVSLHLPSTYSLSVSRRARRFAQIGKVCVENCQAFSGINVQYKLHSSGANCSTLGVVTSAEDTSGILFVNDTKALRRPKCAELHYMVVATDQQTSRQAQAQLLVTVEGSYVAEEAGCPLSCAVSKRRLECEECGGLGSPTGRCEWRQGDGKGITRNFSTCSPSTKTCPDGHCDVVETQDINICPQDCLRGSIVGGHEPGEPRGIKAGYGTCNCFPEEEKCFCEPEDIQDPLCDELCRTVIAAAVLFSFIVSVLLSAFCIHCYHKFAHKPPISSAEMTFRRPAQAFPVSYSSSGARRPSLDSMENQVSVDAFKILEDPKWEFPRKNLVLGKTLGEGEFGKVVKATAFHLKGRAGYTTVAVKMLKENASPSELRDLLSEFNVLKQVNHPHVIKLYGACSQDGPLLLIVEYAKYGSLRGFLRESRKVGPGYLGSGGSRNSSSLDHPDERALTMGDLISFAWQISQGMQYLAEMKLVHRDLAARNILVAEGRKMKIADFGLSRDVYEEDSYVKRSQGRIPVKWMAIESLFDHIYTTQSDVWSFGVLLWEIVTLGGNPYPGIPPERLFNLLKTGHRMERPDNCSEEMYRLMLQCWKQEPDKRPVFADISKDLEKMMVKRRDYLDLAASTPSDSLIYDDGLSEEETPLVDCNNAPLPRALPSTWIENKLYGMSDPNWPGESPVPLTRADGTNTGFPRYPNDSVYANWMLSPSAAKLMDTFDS

[1] = molecular target: PIK3CA E545K/PIK3R1 (p110 alpha E545K/p85 alpha) (Homo sapiens, UniProt P42336, E545K); assay: SelectScreen kinase profiling, Adapta; assay type: biochemical; conditions: PIK3CA E545K/PIK3R1, 10 µM
[2] = molecular target: MAP2K6 (MKK6) S207E T211E (Homo sapiens, UniProt P52564, S207E/T211E); assay: SelectScreen kinase profiling, LanthaScreen binding
EPHA3 = EPHA3 (Homo sapiens, UniProt P29320); assay: as above; conditions: EPHA3, 10 µM
EPHA3, sequence (P29320 21-983): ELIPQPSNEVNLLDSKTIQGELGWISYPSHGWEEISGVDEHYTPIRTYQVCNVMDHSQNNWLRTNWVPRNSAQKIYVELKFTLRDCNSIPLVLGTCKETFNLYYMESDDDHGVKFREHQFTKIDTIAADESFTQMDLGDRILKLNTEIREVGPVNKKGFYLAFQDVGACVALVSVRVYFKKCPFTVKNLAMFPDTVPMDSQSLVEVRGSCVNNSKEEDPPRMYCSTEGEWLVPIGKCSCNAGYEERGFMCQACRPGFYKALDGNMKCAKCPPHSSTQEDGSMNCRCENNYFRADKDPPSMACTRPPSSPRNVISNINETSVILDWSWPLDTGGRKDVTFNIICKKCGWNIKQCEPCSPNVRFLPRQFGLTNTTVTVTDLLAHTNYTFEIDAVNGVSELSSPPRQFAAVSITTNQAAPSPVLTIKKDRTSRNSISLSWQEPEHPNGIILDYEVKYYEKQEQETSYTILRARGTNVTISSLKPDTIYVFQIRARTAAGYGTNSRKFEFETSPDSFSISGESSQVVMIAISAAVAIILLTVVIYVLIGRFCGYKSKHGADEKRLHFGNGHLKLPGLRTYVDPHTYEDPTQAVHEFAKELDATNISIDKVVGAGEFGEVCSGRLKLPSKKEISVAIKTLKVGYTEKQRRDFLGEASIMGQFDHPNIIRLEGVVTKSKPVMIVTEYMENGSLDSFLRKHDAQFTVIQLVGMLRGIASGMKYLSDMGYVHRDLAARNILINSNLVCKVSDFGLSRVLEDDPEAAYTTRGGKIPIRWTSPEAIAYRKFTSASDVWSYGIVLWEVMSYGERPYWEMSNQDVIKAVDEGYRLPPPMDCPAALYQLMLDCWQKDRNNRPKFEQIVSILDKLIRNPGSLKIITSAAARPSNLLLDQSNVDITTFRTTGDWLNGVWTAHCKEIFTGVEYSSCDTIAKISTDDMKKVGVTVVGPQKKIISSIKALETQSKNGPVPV

CDK6/cyclin D1 = CDK6/cyclin D1 (Homo sapiens, UniProt Q00534); assay: SelectScreen kinase profiling, Adapta; assay type: biochemical; conditions: CDK6/cyclin D1, 10 µM
P450 2C19 = P450 2C19 (Homo sapiens, UniProt P33261); assay: SelectScreen P450 Vivid biochemical assay; conditions: 10000nM; substrate EOMCC
MYO3B (MYO3 beta) = MYO3B (MYO3 beta) (Homo sapiens, UniProt Q8WXR4); assay: SelectScreen kinase profiling, LanthaScreen binding
MYO3B (MYO3 beta), sequence (Q8WXR4 whole entry): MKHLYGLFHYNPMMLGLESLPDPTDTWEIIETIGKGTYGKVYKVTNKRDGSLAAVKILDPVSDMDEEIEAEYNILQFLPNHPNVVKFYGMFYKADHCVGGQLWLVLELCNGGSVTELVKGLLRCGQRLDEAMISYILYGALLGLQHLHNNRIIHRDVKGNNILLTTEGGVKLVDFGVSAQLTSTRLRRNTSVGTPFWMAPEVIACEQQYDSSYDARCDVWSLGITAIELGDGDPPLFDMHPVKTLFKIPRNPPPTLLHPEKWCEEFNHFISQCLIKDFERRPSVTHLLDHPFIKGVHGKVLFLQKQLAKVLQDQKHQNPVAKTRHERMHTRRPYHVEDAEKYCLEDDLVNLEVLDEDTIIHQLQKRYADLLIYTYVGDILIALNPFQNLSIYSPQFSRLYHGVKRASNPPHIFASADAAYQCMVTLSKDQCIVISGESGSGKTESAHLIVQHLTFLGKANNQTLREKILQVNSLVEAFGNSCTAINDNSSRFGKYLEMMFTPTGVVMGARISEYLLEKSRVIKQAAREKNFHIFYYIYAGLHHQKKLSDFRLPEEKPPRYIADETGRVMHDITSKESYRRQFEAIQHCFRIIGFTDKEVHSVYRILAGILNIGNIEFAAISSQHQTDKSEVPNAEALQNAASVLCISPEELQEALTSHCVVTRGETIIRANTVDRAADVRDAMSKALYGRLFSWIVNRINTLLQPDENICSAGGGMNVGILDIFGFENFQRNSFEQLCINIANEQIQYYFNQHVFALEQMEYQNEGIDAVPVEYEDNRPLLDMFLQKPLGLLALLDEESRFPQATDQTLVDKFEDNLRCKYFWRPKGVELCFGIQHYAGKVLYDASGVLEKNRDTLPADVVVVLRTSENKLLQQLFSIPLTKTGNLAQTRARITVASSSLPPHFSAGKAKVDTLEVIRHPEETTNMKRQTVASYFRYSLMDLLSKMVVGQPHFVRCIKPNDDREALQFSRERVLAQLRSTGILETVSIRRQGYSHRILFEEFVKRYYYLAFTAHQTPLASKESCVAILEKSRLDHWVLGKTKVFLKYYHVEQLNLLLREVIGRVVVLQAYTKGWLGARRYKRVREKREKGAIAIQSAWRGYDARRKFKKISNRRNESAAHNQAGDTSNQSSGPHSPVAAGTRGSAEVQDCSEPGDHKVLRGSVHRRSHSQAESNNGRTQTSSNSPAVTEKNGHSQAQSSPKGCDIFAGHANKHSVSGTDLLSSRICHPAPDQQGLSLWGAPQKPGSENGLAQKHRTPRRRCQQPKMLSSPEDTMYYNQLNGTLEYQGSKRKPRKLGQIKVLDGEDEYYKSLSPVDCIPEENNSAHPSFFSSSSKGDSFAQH

FGFR3 K650M = FGFR3 K650M (Homo sapiens, UniProt P22607, K650M); assay: as above
NEK2 = NEK2 (Homo sapiens, UniProt P51955); assay: SelectScreen kinase profiling, ZLYTE; assay type: biochemical; conditions: NEK2, 10 µM
PRKCG (PKC gamma) = PRKCG (PKC gamma) (Homo sapiens, UniProt P05129); assay: SelectScreen kinase profiling, ZLYTE; assay type: biochemical
KIT Y823D = KIT Y823D (Homo sapiens, UniProt P10721, Y823D); assay: SelectScreen kinase profiling, LanthaScreen binding
MAP2K5 (MEK5) = MAP2K5 (MEK5) (Homo sapiens, UniProt Q13163); assay: as above
PTK2B (FAK2) = PTK2B (FAK2) (Homo sapiens, UniProt Q14289); assay: SelectScreen kinase profiling, ZLYTE; assay type: biochemical
GSK3B (GSK3 beta) = GSK3B (GSK3 beta) (Homo sapiens, UniProt P49841); assay: SelectScreen kinase profiling, ZLYTE; assay type: biochemical
STK38 (NDR) = STK38 (NDR) (Homo sapiens, UniProt Q15208); assay: SelectScreen kinase profiling, LanthaScreen binding
NUAK1 (ARK5) = NUAK1 (ARK5) (Homo sapiens, UniProt O60285); assay: SelectScreen kinase profiling, Adapta; assay type: biochemical
MAP4K2 (GCK) = MAP4K2 (GCK) (Homo sapiens, UniProt Q12851); assay: SelectScreen kinase profiling, ZLYTE; assay type: biochemical
PDK1 Direct = PDK1 Direct (Homo sapiens, UniProt O15530); assay: SelectScreen kinase profiling, ZLYTE; assay type: biochemical
MKNK1 (MNK1) = MKNK1 (MNK1) (Homo sapiens, UniProt Q9BUB5); assay: SelectScreen kinase profiling, ZLYTE; assay type: biochemical
AMPK A2/B1/G1 = AMPK A2/B1/G1 (Homo sapiens, UniProt P54646); assay: SelectScreen kinase profiling, ZLYTE; assay type: biochemical; conditions: AMPK A2/B1/G1, 10 µM
AMPK A2/B1/G1, sequence (P54646 whole entry): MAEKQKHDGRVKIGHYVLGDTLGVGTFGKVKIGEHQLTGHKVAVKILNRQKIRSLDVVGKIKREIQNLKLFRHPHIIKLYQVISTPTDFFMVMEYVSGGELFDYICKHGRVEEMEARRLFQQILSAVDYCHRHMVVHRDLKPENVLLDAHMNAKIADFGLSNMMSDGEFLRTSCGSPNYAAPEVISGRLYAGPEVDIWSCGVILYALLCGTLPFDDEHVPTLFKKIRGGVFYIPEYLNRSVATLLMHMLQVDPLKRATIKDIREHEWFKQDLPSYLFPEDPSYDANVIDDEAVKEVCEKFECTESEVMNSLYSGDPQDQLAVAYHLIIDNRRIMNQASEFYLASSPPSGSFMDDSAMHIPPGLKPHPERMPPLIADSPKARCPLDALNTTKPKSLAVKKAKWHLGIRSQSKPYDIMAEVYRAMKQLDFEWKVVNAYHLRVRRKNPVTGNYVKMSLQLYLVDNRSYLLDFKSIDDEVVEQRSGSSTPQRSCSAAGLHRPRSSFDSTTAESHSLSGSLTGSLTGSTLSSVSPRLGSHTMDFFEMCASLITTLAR
AMPK A2/B1/G1, sequence (Q9Y478 whole entry partner): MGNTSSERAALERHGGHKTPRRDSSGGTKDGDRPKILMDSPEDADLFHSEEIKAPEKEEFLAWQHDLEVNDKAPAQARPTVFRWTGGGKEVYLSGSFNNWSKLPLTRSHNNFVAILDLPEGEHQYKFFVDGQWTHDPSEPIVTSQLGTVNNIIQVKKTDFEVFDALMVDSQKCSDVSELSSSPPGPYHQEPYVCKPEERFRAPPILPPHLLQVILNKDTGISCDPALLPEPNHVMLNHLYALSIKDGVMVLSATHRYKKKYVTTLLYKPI
AMPK A2/B1/G1, sequence (P54619 whole entry partner): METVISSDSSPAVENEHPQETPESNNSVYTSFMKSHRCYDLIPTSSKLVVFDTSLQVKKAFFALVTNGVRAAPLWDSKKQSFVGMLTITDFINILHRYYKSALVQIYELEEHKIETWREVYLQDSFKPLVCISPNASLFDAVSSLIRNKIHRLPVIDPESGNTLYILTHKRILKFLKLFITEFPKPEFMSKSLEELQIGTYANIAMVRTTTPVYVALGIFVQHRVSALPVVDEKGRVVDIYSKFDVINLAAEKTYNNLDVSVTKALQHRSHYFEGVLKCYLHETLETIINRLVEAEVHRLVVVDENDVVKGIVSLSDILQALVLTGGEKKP

PIK3C2A (PI3K-C2 alpha) = PIK3C2A (PI3K-C2 alpha) (Homo sapiens, UniProt O00443); assay: SelectScreen kinase profiling, Adapta; assay type: biochemical
RT and MB cells = assay: Clonogenic colony formation assay; assay type: cell-based; conditions: 1µM
Description: All cell lines were seeded at 200 cells per well in six-well plates and incubated overnight. After 24 h, the treatment medium was added and changed once a week. Cells were treated with 0.01, 0.05, 0.1, 0.2, 0.5, 1, 5, and 10 µM of PLK4i and 0.1% DMSO as control. After 14 days, the cells were washed twice with 1x PBS, fixed with formalin, and stained with Cresyl violet (ACROS Organics, Pittsburgh, PA, USA). Colonies were counted using the ImageJ software (www.imagej.nih.gov, accessed on April 21, 2017).

PRKCE (PKC epsilon) = PRKCE (PKC epsilon) (Homo sapiens, UniProt Q02156); assay: SelectScreen kinase profiling, ZLYTE; assay type: biochemical
hERG channel = hERG channel (Homo sapiens, UniProt Q12809); assay: biochemical
MYLK2 (skMLCK) = MYLK2 (skMLCK) (Homo sapiens, UniProt Q9H1R3); assay: SelectScreen kinase profiling, ZLYTE; assay type: biochemical
CLK4 = CLK4 (Homo sapiens, UniProt Q9HAZ1); assay: SelectScreen kinase profiling, LanthaScreen binding; conditions: CLK4, 10 µM
GSG2 (Haspin) = GSG2 (Haspin) (Homo sapiens, UniProt Q8TF76); assay: SelectScreen kinase profiling, Adapta; assay type: biochemical
MKNK2 (MNK2) = MKNK2 (MNK2) (Homo sapiens, UniProt Q9HBH9); assay: SelectScreen kinase profiling, LanthaScreen binding
FGFR2 N549H = FGFR2 N549H (Homo sapiens, UniProt P21802, N549H); assay: SelectScreen kinase profiling, ZLYTE; assay type: biochemical
DDR2 T654M = DDR2 T654M (Homo sapiens, UniProt Q16832, T654M); assay: SelectScreen kinase profiling, LanthaScreen binding
EPHA5 = EPHA5 (Homo sapiens, UniProt P54756); assay: SelectScreen kinase profiling, ZLYTE; assay type: biochemical; conditions: EPHA5, 10 µM
CAMK2D (CaMKII delta) = CAMK2D (CaMKII delta) (Homo sapiens, UniProt Q13557); assay: SelectScreen kinase profiling, ZLYTE; assay type: biochemical
CAMK2D (CaMKII delta), sequence (Q13557 whole entry): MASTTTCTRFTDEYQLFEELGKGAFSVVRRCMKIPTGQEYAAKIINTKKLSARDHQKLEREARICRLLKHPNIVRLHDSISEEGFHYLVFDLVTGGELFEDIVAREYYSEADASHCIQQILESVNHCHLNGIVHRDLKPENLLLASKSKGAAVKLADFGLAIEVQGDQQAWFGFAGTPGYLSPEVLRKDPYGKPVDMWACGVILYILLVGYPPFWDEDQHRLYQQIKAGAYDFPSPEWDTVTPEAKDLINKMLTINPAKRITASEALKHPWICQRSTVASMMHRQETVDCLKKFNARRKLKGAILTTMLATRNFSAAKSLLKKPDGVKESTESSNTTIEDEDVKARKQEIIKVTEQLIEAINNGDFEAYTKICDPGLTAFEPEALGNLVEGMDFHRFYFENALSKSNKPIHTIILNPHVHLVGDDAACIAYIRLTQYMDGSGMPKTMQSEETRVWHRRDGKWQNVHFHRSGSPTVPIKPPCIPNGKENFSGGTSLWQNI

AMPK (A1/B2/G1) = AMPK (A1/B2/G1) (Homo sapiens, UniProt Q13131); assay: SelectScreen kinase profiling, LanthaScreen binding

SMILES: O=C(c1ccc(/C=C/c2n[nH]c3ccccc23)cc1)N1CCNCC1 [KW-2449]
- inhibition at 10 µM (KIT D816V): 40%
- inhibition at 10 µM (SGKL (SGK3)): 52%
- inhibition at 10 µM (BRSK2): 7%
- inhibition at 10 µM (RET S891A): 97%
- inhibition at 10 µM [1]: -3%
- inhibition at 10 µM [2]: 82%
- inhibition at 10 µM (EPHA3): 61%
- inhibition at 10 µM (CDK6/cyclin D1): 82%
- % Inhibition 2C19 EOMCC (P450 2C19): 51%
- inhibition at 10 µM (MYO3B (MYO3 beta)): 88%
- inhibition at 10 µM (FGFR3 K650M): 22%
- inhibition at 10 µM (NEK2): 47%
- inhibition at 10 µM (PRKCG (PKC gamma)): 81%
- inhibition at 10 µM (KIT Y823D): 61%
- inhibition at 10 µM (MAP2K5 (MEK5)): 84%
- inhibition at 10 µM (PTK2B (FAK2)): 96%
- inhibition at 10 µM (GSK3B (GSK3 beta)): 66%
- inhibition at 10 µM (STK38 (NDR)): 85%
- inhibition at 10 µM (NUAK1 (ARK5)): 100%
- inhibition at 10 µM (MAP4K2 (GCK)): 101%
- inhibition at 10 µM (PDK1 Direct): 103%
- inhibition at 10 µM (MKNK1 (MNK1)): 52%
- inhibition at 10 µM (AMPK A2/B1/G1): 99%
- inhibition at 10 µM (PIK3C2A (PI3K-C2 alpha)): 4%
- colony formation (RT and MB cells): complete inhibition of colony formation in all cell lines except the MB cell line DAOY
- inhibition at 10 µM (PRKCE (PKC epsilon)): 10%
- IC50 (hERG channel): > 10 µM
- inhibition at 10 µM (MYLK2 (skMLCK)): 100%
- inhibition at 10 µM (CLK4): 84%
- inhibition at 10 µM (GSG2 (Haspin)): 74%
- inhibition at 10 µM (MKNK2 (MNK2)): 68%
- inhibition at 10 µM (FGFR2 N549H): 94%
- inhibition at 10 µM (DDR2 T654M): 84%
- inhibition at 10 µM (EPHA5): 84%
- inhibition at 10 µM (CAMK2D (CaMKII delta)): 96%
- inhibition at 10 µM (AMPK (A1/B2/G1)): 77%
